Source: patent publication US12692269B2, “Therapeutic compounds” (Genentech, Inc., priority 2019, dated 2026)

What was measured:
Format in all cases: binding
[1] = biological target: TEAD3 TAZ (amino acids 13-57) (Homo sapiens, UniProt Q99594); assay: TEAD3-TAZ HTRF (TR-FRET) protein-protein interaction assay; conditions: for TEAD3 TAZ HTRF combined: Max % Inhibition: TEAD3, TAZ peptide; for EC50: TEAD3-TAZ HTRF, TR-FRET 665 nm/615 nm, read-out: TEAD3 TAZ HTRF combined: EC50
Outline: (§1)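 His-tagged TEAD YAP-binding domain (aa 217-447) pre-bound to Eu anti-His tracer, incubated with compound 30 min, then biotinylated YAP (aa 50-100) or TAZ (aa 13-57) peptide with streptavidin-XL665 added for 60 min at room temperature. TR-FRET read at 665/615 nm; IC50 or EC50 from four-parameter fit.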

[2] = biological target: TEAD4 TAZ (amino acids 13-57) (Homo sapiens, UniProt Q15561); assay: TEAD4-TAZ HTRF (TR-FRET) protein-protein interaction assay; conditions: for TEAD4 TAZ HTRF combined: Max % Inhibition: TEAD4, TAZ peptide; for EC50: TEAD4-TAZ HTRF, TR-FRET 665 nm/615 nm, read-out: TEAD4 TAZ HTRF combined: EC50
TEAD4 TAZ (amino acids 13-57), sequence (Q15561 217-434 limits assumed): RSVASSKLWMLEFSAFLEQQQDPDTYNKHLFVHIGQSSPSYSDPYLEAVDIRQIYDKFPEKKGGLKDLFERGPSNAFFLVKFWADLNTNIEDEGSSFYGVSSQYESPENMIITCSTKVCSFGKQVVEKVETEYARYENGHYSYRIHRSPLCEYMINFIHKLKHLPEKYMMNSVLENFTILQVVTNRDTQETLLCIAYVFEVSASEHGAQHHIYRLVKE
Outline: as §1

[3] = biological target: TEAD1 TAZ (amino acids 13-57) (Homo sapiens, UniProt P28347); assay: TEAD1-TAZ HTRF (TR-FRET) protein-protein interaction assay; conditions: for TEAD1 TAZ HTRF combined: Max % Inhibition: TEAD1, TAZ peptide; for EC50: TEAD1-TAZ HTRF, TR-FRET 665 nm/615 nm, read-out: TEAD1 TAZ HTRF combined: EC50
TEAD1 TAZ (amino acids 13-57), sequence (P28347 167-426 limits assumed): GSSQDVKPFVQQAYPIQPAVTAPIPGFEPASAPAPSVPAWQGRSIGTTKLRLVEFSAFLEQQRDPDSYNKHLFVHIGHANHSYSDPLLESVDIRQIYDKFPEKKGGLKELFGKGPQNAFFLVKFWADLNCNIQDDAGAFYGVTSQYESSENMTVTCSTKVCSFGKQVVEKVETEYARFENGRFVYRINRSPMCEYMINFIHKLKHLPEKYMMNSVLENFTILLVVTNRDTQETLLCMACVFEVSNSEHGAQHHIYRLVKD
Outline: as §1

TEAD2 YAP50-100 = TEAD2 YAP50-100 (Homo sapiens, UniProt Q15562); assay: TEAD2-YAP HTRF (TR-FRET) protein-protein interaction assay; conditions: TEAD2, YAP peptide 50-100, HTRF; for EC50: read-out: TEAD2 YAP50-100 HTRF combined: EC50
TEAD2 YAP50-100, sequence (Q15562 217-447): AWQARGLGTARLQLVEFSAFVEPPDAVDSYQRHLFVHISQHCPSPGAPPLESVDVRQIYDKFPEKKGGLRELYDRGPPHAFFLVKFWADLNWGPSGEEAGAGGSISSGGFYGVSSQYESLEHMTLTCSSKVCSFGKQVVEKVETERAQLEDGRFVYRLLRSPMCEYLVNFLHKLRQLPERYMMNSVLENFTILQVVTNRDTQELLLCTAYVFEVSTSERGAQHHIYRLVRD
Outline: as §1

TEAD4 YAP50-100 = TEAD4 YAP50-100 (Homo sapiens, UniProt Q15561); assay: TEAD4-YAP HTRF (TR-FRET) protein-protein interaction assay; conditions: TEAD4, YAP peptide 50-100, HTRF; for EC50: read-out: TEAD4 YAP50-100 HTRF combined: EC50
TEAD4 YAP50-100, sequence (Q15561 217-434 limits assumed): as the sequence (Q15561 217-434 limits assumed) above
Outline: as §1

TEAD1 YAP50-100 = TEAD1 YAP50-100 (Homo sapiens, UniProt P28347); assay: TEAD1-YAP HTRF (TR-FRET) protein-protein interaction assay; conditions: TEAD1, YAP peptide 50-100, HTRF; for EC50: read-out: TEAD1 YAP50-100 HTRF combined: EC50
TEAD1 YAP50-100, sequence (P28347 167-426 limits assumed): as the sequence (P28347 167-426 limits assumed) above
Outline: as §1

[4] = biological target: TEAD2 TAZ (amino acids 13-57) (Homo sapiens, UniProt Q15562); assay: TEAD2-TAZ HTRF (TR-FRET) protein-protein interaction assay; conditions: for TEAD2 TAZ HTRF combined: Max % Inhibition: TEAD2, TAZ peptide; for EC50: TEAD2-TAZ HTRF, TR-FRET 665 nm/615 nm, read-out: TEAD2 TAZ HTRF combined: EC50
TEAD2 TAZ (amino acids 13-57), sequence (Q15562 217-447): as the sequence (Q15562 217-447) above
Outline: as §1

TEAD3 YAP50-100 = TEAD3 YAP50-100 (Homo sapiens, UniProt Q99594); assay: TEAD3-YAP HTRF (TR-FRET) protein-protein interaction assay; conditions: TEAD3, YAP peptide 50-100, HTRF; for EC50: read-out: TEAD3 YAP50-100 HTRF combined: EC50
TEAD3 YAP50-100, sequence (Q99594 173-435 limits assumed): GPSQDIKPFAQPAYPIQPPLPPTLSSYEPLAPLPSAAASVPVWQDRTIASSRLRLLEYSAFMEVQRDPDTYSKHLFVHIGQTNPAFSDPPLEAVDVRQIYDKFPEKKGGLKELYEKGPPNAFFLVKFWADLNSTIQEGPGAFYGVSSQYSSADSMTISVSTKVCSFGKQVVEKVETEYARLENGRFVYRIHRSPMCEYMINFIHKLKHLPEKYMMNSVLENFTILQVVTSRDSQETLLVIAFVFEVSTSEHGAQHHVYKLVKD
Outline: as §1

TEAD3 TAZ (amino acids 13-57), sequence (Q99594 173-435 limits assumed): as above

Cc1nccnc1-c1nn2c(=O)cc(-c3ccc(O[C@@H](c4ccccc4)C(F)(F)F)cc3)[nH]c2c1C(=O)N1CC(CF)C1 [Compound 67, (S)-3-(3-(Fluoromethyl)azetidine-1-carbonyl)-2-(3-methylpyrazin-2-yl)-5-(4-(2,2,2-trifluoro-1-phenylethoxy)phenyl)pyrazolo[1,5-a]pyrimidin-7(4H)-one]
TEAD3 TAZ HTRF combined: Max % Inhibition [1]: 71.0% | EC50 [1]: 200 nM | TEAD4 TAZ HTRF combined: Max % Inhibition [2]: 71.5% | EC50 [2]: 4000 nM | TEAD1 TAZ HTRF combined: Max % Inhibition [3]: 65.0% | EC50 [3]: 220 nM | TEAD2 YAP50-100 HTRF combined: Max % Inhibition (TEAD2 YAP50-100): 92.5% | EC50 (TEAD2 YAP50-100): 50 nM | TEAD4 YAP50-100 HTRF combined: Max % Inhibition (TEAD4 YAP50-100): 72.5% | EC50 (TEAD4 YAP50-100): 4250 nM | TEAD1 YAP50-100 HTRF combined: Max % Inhibition (TEAD1 YAP50-100): 69.0% | EC50 (TEAD1 YAP50-100): 190 nM | TEAD2 TAZ HTRF combined: Max % Inhibition [4]: 89.0% | EC50 [4]: 50 nM | TEAD3 YAP50-100 HTRF combined: Max % Inhibition (TEAD3 YAP50-100): 79.0% | EC50 (TEAD3 YAP50-100): 180 nM

Cc1nccnc1-c1nn2c(=O)cc(-c3ccc(O[C@H](c4ccccc4)C(F)(F)F)cc3)[nH]c2c1C(=O)N1CC(CF)C1 [Compound 68, (R)-3-(3-(Fluoromethyl)azetidine-1-carbonyl)-2-(3-methylpyrazin-2-yl)-5-(4-(2,2,2-trifluoro-1-phenylethoxy)phenyl)pyrazolo[1,5-a]pyrimidin-7(4H)-one]
TEAD3 TAZ HTRF combined: Max % Inhibition [1]: 64.5% | EC50 [1]: 590 nM | TEAD4 TAZ HTRF combined: Max % Inhibition [2]: 61.5% | EC50 [2]: 4950 nM | TEAD1 TAZ HTRF combined: Max % Inhibition [3]: 63.0% | EC50 [3]: 270 nM | TEAD2 YAP50-100 HTRF combined: Max % Inhibition (TEAD2 YAP50-100): 84.0% | EC50 (TEAD2 YAP50-100): 60 nM | TEAD4 YAP50-100 HTRF combined: Max % Inhibition (TEAD4 YAP50-100): 64.5% | EC50 (TEAD4 YAP50-100): 5550 nM | TEAD1 YAP50-100 HTRF combined: Max % Inhibition (TEAD1 YAP50-100): 65.0% | EC50 (TEAD1 YAP50-100): 190 nM | TEAD2 TAZ HTRF combined: Max % Inhibition [4]: 75.5% | EC50 [4]: 60 nM | TEAD3 YAP50-100 HTRF combined: Max % Inhibition (TEAD3 YAP50-100): 67.5% | EC50 (TEAD3 YAP50-100): 510 nM

Cc1nccnc1-c1nn2c(=O)cc(-c3ccc(C4CCCC4)cc3)[nH]c2c1C(=O)N1C[C@H](CF)[C@@H]1C [Compound 69, 5-(4-Cyclopentylphenyl)-3-((2S,3S)-3-(fluoromethyl)-2-methylazetidine-1-carbonyl)-2-(3-methylpyrazin-2-yl)pyrazolo[1,5-a]pyrimidin-7(4H)-one]
TEAD3 TAZ HTRF combined: Max % Inhibition [1]: 75.5% | EC50 [1]: 120 nM | TEAD4 TAZ HTRF combined: Max % Inhibition [2]: 65.5% | EC50 [2]: 130 nM | TEAD1 TAZ HTRF combined: Max % Inhibition [3]: 73.5% | EC50 [3]: 50 nM | TEAD2 YAP50-100 HTRF combined: Max % Inhibition (TEAD2 YAP50-100): 76.0% | EC50 (TEAD2 YAP50-100): 10 nM | TEAD4 YAP50-100 HTRF combined: Max % Inhibition (TEAD4 YAP50-100): 62.5% | EC50 (TEAD4 YAP50-100): 170 nM | TEAD1 YAP50-100 HTRF combined: Max % Inhibition (TEAD1 YAP50-100): 79.0% | EC50 (TEAD1 YAP50-100): 40 nM | TEAD2 TAZ HTRF combined: Max % Inhibition [4]: 75.5% | EC50 [4]: 10 nM | TEAD3 YAP50-100 HTRF combined: Max % Inhibition (TEAD3 YAP50-100): 80.0% | EC50 (TEAD3 YAP50-100): 110 nM

CCCCCCC/C=C/c1cc(=O)n2nc(-c3nccnc3C)c(C(=O)N3C[C@H](CF)[C@@H]3C)c2[nH]1 [Compound 70, 3-((2S,3S)-3-(fluoromethyl)-2-methylazetidine-1-carbonyl)-2-(3-methylpyrazin-2-yl)-5-((E)-non-1-en-1-yl)pyrazolo[1,5-a]pyrimidin-7(4H)-one]
TEAD3 TAZ HTRF combined: Max % Inhibition [1]: 52.5% | EC50 [1]: 30 nM | TEAD4 TAZ HTRF combined: Max % Inhibition [2]: 63.5% | EC50 [2]: 970 nM | TEAD1 TAZ HTRF combined: Max % Inhibition [3]: 54.5% | EC50 [3]: 20 nM | TEAD2 YAP50-100 HTRF combined: Max % Inhibition (TEAD2 YAP50-100): 67.0% | TEAD4 YAP50-100 HTRF combined: Max % Inhibition (TEAD4 YAP50-100): 58.0% | EC50 (TEAD4 YAP50-100): 1300 nM | TEAD1 YAP50-100 HTRF combined: Max % Inhibition (TEAD1 YAP50-100): 58.0% | EC50 (TEAD1 YAP50-100): 10 nM | TEAD2 TAZ HTRF combined: Max % Inhibition [4]: 66.0% | EC50 [4]: 10 nM | TEAD3 YAP50-100 HTRF combined: Max % Inhibition (TEAD3 YAP50-100): 64.0% | EC50 (TEAD3 YAP50-100): 40 nM

CCCCCCCCCc1cc(=O)n2nc(-c3nccnc3C)c(C(=O)N3C[C@H](CF)[C@@H]3C)c2[nH]1 [Compound 71, 3-((2S,3S)-3-(fluoromethyl)-2-methylazetidine-1-carbonyl)-2-(3-methylpyrazin-2-yl)-5-nonylpyrazolo[1,5-a]pyrimidin-7(4H)-one]
TEAD3 TAZ HTRF combined: Max % Inhibition [1]: 49.0% | EC50 [1]: 50 nM | TEAD4 TAZ HTRF combined: Max % Inhibition [2]: 56.5% | EC50 [2]: 3000 nM | TEAD1 TAZ HTRF combined: Max % Inhibition [3]: 52.5% | EC50 [3]: 50 nM | TEAD2 YAP50-100 HTRF combined: Max % Inhibition (TEAD2 YAP50-100): 64.0% | EC50 (TEAD2 YAP50-100): 10 nM | TEAD4 YAP50-100 HTRF combined: Max % Inhibition (TEAD4 YAP50-100): 48.5% | EC50 (TEAD4 YAP50-100): 3450 nM | TEAD1 YAP50-100 HTRF combined: Max % Inhibition (TEAD1 YAP50-100): 53.0% | EC50 (TEAD1 YAP50-100): 50 nM | TEAD2 TAZ HTRF combined: Max % Inhibition [4]: 64.0% | EC50 [4]: 10 nM | TEAD3 YAP50-100 HTRF combined: Max % Inhibition (TEAD3 YAP50-100): 61.0% | EC50 (TEAD3 YAP50-100): 60 nM

[2H]C1([2H])C([2H])([2H])C([2H])([2H])C([2H])(c2ccc(-c3cc(=O)n4nc(-c5nccnc5C)c(C(=O)N5C[C@H](CF)[C@@H]5C)c4[nH]3)cc2)C([2H])([2H])C1([2H])[2H] [Compound 72, 3-[(2S,35)-3-(fluoromethyl)-2-methyl-azetidine-1-carbonyl]-2-(3-methylpyrazin-2-yl)-5-[4-(1,2,2,3,3,4,4,5,5,6,6-undecadeuteriocyclohexyl)phenyl]-4H-pyrazolo[1,5-a]pyrimidin-7-one]
TEAD3 TAZ HTRF combined: Max % Inhibition [1]: 71.5% | EC50 [1]: 170 nM | TEAD4 TAZ HTRF combined: Max % Inhibition [2]: 56.0% | EC50 [2]: 30 nM | TEAD1 TAZ HTRF combined: Max % Inhibition [3]: 74.0% | EC50 [3]: 80 nM | TEAD2 YAP50-100 HTRF combined: Max % Inhibition (TEAD2 YAP50-100): 73.0% | EC50 (TEAD2 YAP50-100): 20 nM | TEAD4 YAP50-100 HTRF combined: Max % Inhibition (TEAD4 YAP50-100): 54.0% | EC50 (TEAD4 YAP50-100): 30 nM | TEAD1 YAP50-100 HTRF combined: Max % Inhibition (TEAD1 YAP50-100): 77.0% | EC50 (TEAD1 YAP50-100): 70 nM | TEAD2 TAZ HTRF combined: Max % Inhibition [4]: 75.0% | EC50 [4]: 20 nM | TEAD3 YAP50-100 HTRF combined: Max % Inhibition (TEAD3 YAP50-100): 76.0% | EC50 (TEAD3 YAP50-100): 160 nM
